Experimental data from US9073858B2, “Methods of targeted drug development” (priority 2010, dated 2015).
Where “and” joins values, the source holds several entries; their conditions need not be identical. Equal entries are not always repeated. Where two headings read alike, the source gives them in different places.

How the values were obtained:
[1] = system: HT-29 cells; assay: HT-29 Cell Proliferation Assay (MTT); type: cell-based
Method: (§1) Cell proliferation is determined using the MTT assay. The MTT cell proliferation assay is a colorimetric assay system which measures the reduction of a tetrazolium component (MTT) into an insoluble formazan product by the mitochondria of viable cells. After incubation of the cells with the MTT reagent, DMSO is added to solubilize the colored crystals and the samples read at a wavelength of 560 nm. The amount of color produced is directly proportional to the number of viable cells.
(§2) 3-(4,5-Dimethylthiazol-2-yl)-2,5-diphenyltetrazolium Bromide (MTT) dye (Aesar, cat no. L11939) was prepared at 5 mg/ml in PBS. To each well, 20 μl of MTT solution was added to existing media and mixed thoroughly with 5 mins of gentle shaking at room temperature. Plates were incubated at 37° C., 5% CO2 for approximately 2 hrs. After 2-3 hrs incubation, media was aspirated out and plates were patted dry. […] Plates were incubated at 37° C., 5% CO2 for 10 min and mix thoroughly with 5 mins of gentle shaking at room temperature. Plates were read on the PolarStar plate reader at 560 nm. Percent (%) inhibition was calculated as 100%−(OD560 nm experimental-blank)×100%/OD560 nm control-blank. Blank=wells+serum free media+0.5% DMSO. Experimental=wells+cells+treatment+0.5% DMSO. Control=wells+cells+0.5% DMSO. IC50 values were calculated in GraphPad Prism using non-linear regression curve fitting. All statistical analyses was done either in GraphPad Prism or Microsoft Excel.
Briefly, compounds are added to cells plated in 96-well plates. […] The effect of the compounds on cell proliferation is analyzed using GraphPad Prism.
HT-29 cells are a colon cancer cell line that is utilized to assess the ability of compounds to inhibit the proliferation of cells in tumors of the colon.
For the HT-29 cell proliferation assay, on day 1, HT-29 cells are seeded at 3,000 cells/well in 100 μl media containing 10% FBS, 1× Pen-Strep, and 1× L-Glutamine in 96 well, tissue culture-treated plates. […] Working solutions of compounds were prepared (at […] in 100% DMSO). To 200 μl media, 20 μl of a 5× compound (diluted in plain media) was added for a final DMSO concentration of 0.5%. […] On day 5, plates were analyzed for cell growth using the MTT assay.

[2] = system: A549 cells; assay: A549 Cell Proliferation Assay (MTT); type: cell-based; conditions: Homo sapiens
Method: Cell proliferation is determined using the MTT assay. The MTT cell proliferation assay is a colorimetric assay system which measures the reduction of a tetrazolium component (MTT) into an insoluble formazan product by the mitochondria of viable cells. After incubation of the cells with the MTT reagent, DMSO is added to solubilize the colored crystals and the samples read at a wavelength of 560 nm. The amount of color produced is directly proportional to the number of viable cells. […] L11939) was prepared at 5 mg/ml in PBS. […] Plates were read on the PolarStar plate reader at 560 nm. […] IC50 values were calculated in GraphPad Prism using non-linear regression curve fitting. All statistical analyses was done either in GraphPad Prism or Microsoft Excel. […] Briefly, compounds are added to cells plated in 96-well plates. The cells are allowed to grow for 72 hours before MTT treatment. The effect of the compounds on cell proliferation is analyzed using GraphPad Prism. A549 cells are a non-small cell lung cancer cell line that have wild type EGFR and p53 but have point mutations in KRAS gene which transform it into an oncogene. […] SH30071.03, lot no. ATB31500), 1% Pen Strep (Gibco, cat no. […] On day 2, working solutions of compounds at 200× were prepared. […] Plates were incubated for 72 hours before analyzing them with MTT (as described above).

[3] = system: H1975 cells; assay: H1975 Cell Proliferation Assay (MTT); type: cell-based; conditions: Homo sapiens, NCI-H1975, 72 h, read-out: IC50 Value (μM) H1975 Cells
Method: as §1, §2
Briefly, compounds are added to cells plated in 96-well plates. The cells are allowed to grow for 72 hours before MTT treatment. The effect of the compounds on cell proliferation is analyzed using GraphPad Prism.

[4] = Stability on incubation with human liver microsomes (HLM); type: in vitro ADME; conditions: percentage left after incubation with human liver microsomes for 30 minutes
Method: (§3) Stability of hydroxyquinoline analogs were determined (see e.g., TABLE 18). MLM represents the percentage left after incubation with mouse liver microsomes for 30 minutes. HLM represents the percentage left after incubation with human liver microsomes for 30 minutes.
(§4) Stability of analogs having a benzaldehyde derived ring were determined (see e.g., TABLE 18). MLM represents the percentage left after incubation with mouse liver microsomes for 30 minutes. HLM represents the percentage left after incubation with human liver microsomes for 30 minutes.

[5] = Stability on incubation with mouse liver microsomes (MLM); type: in vitro ADME; conditions: percentage left after incubation with mouse liver microsomes for 30 minutes
Method: as §3, §4

[6] = Homo sapiens, HT-29, 72 h, read-out: IC50 Value (μM) HT-29 Cells
[7] = A549, 72 h, read-out: IC50 Value (μM) A549 Cells

| Structure (SMILES) | IC50 [2, 7] [µM] | HLM % Remaining@ 30 Min [4] [%] | MLM % Remaining@ 30 Min [5] [%] | also measured |
| --- | --- | --- | --- | --- |
| CCc1cc(Cl)cnc1NC(c1ccc(Cl)cc1Cl)c1ccc2cccnc2c1O (stereo not drawn) [AD4-13217] | 0.12 |  |  | IC50 [1, 6]: 0.96 µM |
| Oc1c(C(Nc2cc(Cl)ccn2)c2ccc(C(F)(F)F)cc2F)ccc2cccnc12 (stereo not drawn) [AD4-13046] | 0.16 |  |  | IC50 [3]: 0.12 µM |
| COc1cc(Cl)cnc1NC(c1cc(Cl)cc(Cl)c1)c1ccc2cccnc2c1O (stereo not drawn) [AD4-13216] | 0.12 |  |  | IC50 [1, 6]: 1.6 µM |
| Oc1c(C(Nc2ccc(C(F)(F)F)cn2)c2ccc(Cl)c(Cl)c2)ccc2cccnc12 (stereo not drawn) [AD4-13030] | 0.17 |  |  | IC50 [3]: 0.22 µM |
| Oc1c(C(Nc2ccc(C(F)(F)F)cn2)c2ccc(Cl)cc2Cl)ccc2cccnc12 (stereo not drawn) [AD4-13033] | 0.13 | 100 | 84 | IC50 [3]: 0.23 µM |
| Oc1c(C(Nc2ccc(C(F)(F)F)cn2)c2ccc(C(F)(F)F)cc2)ccc2cccnc12 (stereo not drawn) [AD4-13028] | 0.14 |  |  | IC50 [3]: 0.26 µM |
| Oc1c(C(Nc2cc(Cl)ccn2)c2ccc(C(F)(F)F)c(F)c2)ccc2cccnc12 (stereo not drawn) [AD4-13048] | 0.18 |  |  | IC50 [3]: 0.17 µM |
| Oc1c(C(Nc2ccc(C(F)(F)F)cn2)c2ccc(C(F)(F)F)cc2F)ccc2cccnc12 (stereo not drawn) [AD4-13031] | 0.12 | 93 | 87 | IC50 [3]: 0.24 µM |
| Oc1c(C(Nc2ccc(Cl)cn2)c2ccc(C(F)(F)F)cc2)ccc2cccnc12 (stereo not drawn) [AD4-13053] |  | 97 | 46 |  |
| Oc1c(C(Nc2cc(Cl)ccn2)c2ccc(F)cc2F)ccc2cccnc12 (stereo not drawn) [AD4-13045] |  | 77 | 26 |  |
| Cc1cccc(NC(c2cccc(Cl)c2Cl)c2ccc3cccnc3c2O)n1 (stereo not drawn) [AD4-12905] |  | 63 | 23 |  |
| Cc1cc(NC(c2cc(Cl)cc(Cl)c2)c2ccc3cccnc3c2O)ncc1F (stereo not drawn) [AD4-13114] |  | 99 | 40 |  |
| Cc1cccc(NC(c2ccc(F)cc2Cl)c2ccc3cccnc3c2O)n1 (stereo not drawn) [AD4-13024] |  | 47 | 20 |  |
| Cc1ccnc(NC(c2ccc(Cl)cc2Cl)c2ccc3cccnc3c2O)c1 (stereo not drawn) [AD4-12912] |  | 38 | 10 |  |
| Cc1cccc(NC(c2ccc(OC(F)(F)F)cc2)c2ccc3cccnc3c2O)n1 (stereo not drawn) [AD4-12902] |  | 72 | 17 |  |
| Cc1nc(NC(c2cc(Cl)cc(Cl)c2)c2ccc3cccnc3c2O)c(Cl)cc1Cl (stereo not drawn) [AD4-13223] | 0.11 |  |  | IC50 [1, 6]: 2.5 µM |
| Cc1nc(NC(c2cc(Cl)cc(Cl)c2Cl)c2ccc3cccnc3c2O)c(Cl)cc1Cl (stereo not drawn) [AD4-13213] | 0.16 |  |  | IC50 [1, 6]: 5.4 µM |

| Structure (SMILES) | IC50 [2, 7] [µM] | HLM % Remaining@ 30 Min [4] [%] | MLM % Remaining@ 30 Min [5] [%] | also measured |
| --- | --- | --- | --- | --- |
| Cc1cc(NC(c2ccc(Cl)c(Cl)c2)c2ccc3cccnc3c2O)ncc1Cl (stereo not drawn) [AD4-13166] |  | 100 | 71 |  |
| Cc1cc(NC(c2cccc(C(F)(F)F)c2)c2ccc3cccnc3c2O)ncc1Cl (stereo not drawn) [AD4-13107] |  | 83 | 28 |  |
| Oc1c(C(Nc2ccc(C(F)(F)F)cn2)c2ccc(Cl)c(C(F)(F)F)c2)ccc2cccnc12 (stereo not drawn) [AD4-13032] | 0.17 |  |  | IC50 [3]: 0.21 µM |
| Cc1ccnc(NC(c2ccc(Cl)c(Cl)c2)c2ccc3cccnc3c2O)c1 (stereo not drawn) [AD4-12917] |  | 53 | 11 |  |
| Oc1c(C(Nc2cc(Cl)ccn2)c2cc(C(F)(F)F)ccc2Cl)ccc2cccnc12 (stereo not drawn) [AD4-13060] | 0.19 |  |  | IC50 [3]: 0.58 µM |
| Oc1c(C(Nc2ccc(Cl)cn2)c2ccc(Cl)c(C(F)(F)F)c2)ccc2cccnc12 (stereo not drawn) [AD4-13067] |  | 89 | 46 |  |
| Oc1c(C(Nc2ccc(Cl)cn2)c2cc(Cl)cc(Cl)c2)ccc2cccnc12 (stereo not drawn) [AD4-13094] |  | 85 | 52 |  |
| Cc1cc(Cl)cnc1NC(c1cc(C(F)(F)F)ccc1Cl)c1ccc2cccnc2c1O (stereo not drawn) [AD4-13058] |  | 75 | 60 |  |
| CCc1c(Cl)cnc(NC(c2ccc(Cl)cc2Cl)c2ccc3cccnc3c2O)c1F (stereo not drawn) [AD4-13218] | 0.086 |  |  | IC50 [1, 6]: 0.92 µM; IC50 ([2]; A549, read-out: IC50, cell proliferation in A549 or H1975 cells): ≤ 0.1 µM |
| Oc1c(C(Nc2ccc(Cl)cn2)c2cc(C(F)(F)F)ccc2Cl)ccc2cccnc12 (stereo not drawn) [AD4-13052] | 0.13 |  |  | IC50 [3]: 0.24 µM |
| Cc1cccc(NC(c2cc(Cl)cc(Cl)c2)c2ccc3cccnc3c2O)n1 (stereo not drawn) [AD4-12913] |  | 61 | 41 |  |
| Cc1cccc(NC(c2cc(Cl)cc(Cl)c2)c2ccc3ccc(C)nc3c2O)n1 (stereo not drawn) [AD4-13075] |  | 64 | 13 |  |
| Oc1c(C(Nc2ccc(F)cn2)c2ccc(C(F)(F)F)c(F)c2)ccc2cccnc12 (stereo not drawn) [AD4-13061] |  | 93 | 58 |  |
| CS(=O)(=O)CCNCc1ccc(-c2ccc3ncnc(Nc4ccc(OCc5cccc(F)c5)c(Cl)c4)c3c2)o1 [Tykerb, reference compound] |  |  |  | IC50 ([1]; Homo sapiens, HT-29, 48 h, read-out: IC50, Comparison of Incubation Times in HT-29 Cell Proliferation Assay): 2.7 µM; IC50 ([1]; Homo sapiens, HT-29, 72 h, read-out: IC50, Comparison of Incubation Times in HT-29 Cell Proliferation Assay): 2.3 µM; IC50 ([1]; Homo sapiens, HT-29, read-out: HT-29 Cell Proliferation Assay Results (IC50)): 5 µM; IC50 ([1]; Homo sapiens, HT-29, read-out: IC50 from dose-response curves of FIG. 11, HT-29 cells): 2.7 µM; IC50 ([1]; read-out: HT-29 Cell Proliferation Assay Results (IC50)): 5.1 µM and 8.5 µM and 9.2 µM; IC50 ([1]; read-out: IC50, Comparison of Incubation Times in HT-29 Cell Proliferation Assay): 4.4 µM and 4.2 µM |
| Oc1c(C(Nc2ccc(C(F)(F)F)cn2)c2cc(C(F)(F)F)ccc2Cl)ccc2cccnc12 (stereo not drawn) [AD4-13056] |  | 88 | 85 |  |
| Cc1cccc(NC(c2ccc3cccnc3c2O)c2c(F)cccc2Cl)n1 (stereo not drawn) [AD4-12959] |  | 42 | 15 |  |
